These results are taken from US20090270477A1, “POLYMORPHS OF A HYDROISOINDOLINE TACHYKININ RECEPTOR ANTAGONIST” (priority 2006, published 2009).

This data set can be described thus: Relative thermodynamic stability of the two anhydrous crystalline forms (enantiotropic pair). The class given is physicochemical. Particulars: freebase of compound of structural formula A; Form I and Form II are enantiotropic.

The structures appear in SMILES notation.

With `C[C@@H](O[C@H]1CC[C@@H]2CN(C3=CC(=O)CC3)C[C@H]2[C@@H]1c1ccc(F)cc1)c1cc(C(F)(F)F)cc(C(F)(F)F)c1` [Form II], the “temperatures at which the form is thermodynamically more stable” value was “above 72 °C”.

Take `C[C@@H](O[C@H]1CC[C@@H]2CN(C3=CC(=O)CC3)C[C@H]2[C@@H]1c1ccc(F)cc1)c1cc(C(F)(F)F)cc(C(F)(F)F)c1` [Form I]: the “temperatures at which the form is thermodynamically more stable” value is “below 72 °C”.
